In data set [1] the test system is Murine leukemia L1210 cells. As to the kind of experiment: In vitro growth inhibition of L1210 cells (MTT, 72 hr). The format is cell-based. The following applies: Mus musculus, read-out: L1210 IC50. On the procedure: (§1) The reagents for tissue culture were purchased from GIBCO (Grand Island, N.Y.). 5-Dimethylthiazol-2-yl)-2,5-diphenyl tetrazolium bromide (MTT) was purchased from Sigma Chemical Company (St. Louis, Mo.). All agents were prepared as 2 mg/ml stock solutions in DMSO. MTT was prepared as a 1 mg/ml stock solution in Dulbecco's phosphate buffered saline (PBS). All stocks were stored frozen in the dark at -20° C.
(§2) Clone A human colon cancer cells were isolated from the heterogeneous DLD-1 colon tumor line and maintained as previously described (Dexter, D. L.; Barbosa, J. A.; Calabresi, P. Cancer Research 1979, 39, 1020; Dexter, D. L.; Spremulli, E. M.; Fligiel, A.; Barbosa, J. A.; Vogel, R.; Van Vorhees, A.; Calabresi, P. Am. J. Med. 1981, 71, 949.). Murine leukemia L1210 cells were maintained in RPMI-L medium as described (Chen, S.-F.; Ruben, R. L.; Dexter, D. L. Cancer Research 1986, 46, 5014.). All cell lines were incubated at 37° C. in a humidified atmosphere of 5% CO2 -95% air.
(§3) Exponentially growing L1210 cells (1×10^3), or Clone A cells (8×10^2) in 0.1 ml medium were seeded in a 96-well microtiter plate on day 0. On day one, 0.1 ml aliquots of medium containing graded concentrations of test compounds were added to the cell plates. After incubation at 37° C. in a humidified incubator for 72 hr, the plates containing L1210 cells were centrifuged briefly and 100 μl of the growth medium was removed. Cell cultures were incubated with 50 μl of MTT for 4 h at 37° C. (12). The resulting purple formazan precipitate was solubilized with 200 μl of 0.04 N HCl in isopropyl alcohol. Absorbance was read in a Titertek Multiskan MCC scanning well spectrophotometer (Flow Laboratories) at a test wavelength of 570 nm and a reference wavelength of 630 nm. The absorbances were stored on a floppy disk on an IBM-XT and uploaded onto a VAX computer. IC50 values were determined by a computer program that fit the data to the following equation:
(§4) Y=((Am -Ao)/(1+(X/IC50)^n))+Ao
(§5) where Am =absorbance of the control cells; Ao =absorbance of the cells in the presence of highest compound concentration; Y=observed absorbance; X=compound concentration; IC50 =dose of compound that inhibits the number of population doublings of cells to one half that of the number of population doublings of the control cells; and n equals the slope of the straight portion of the curve.
(§6) The values reported in the table are from at least one experiment performed in eight replicates. If more than one experiment was performed, the number reported is the average of all the trials

Data set [2] has as its system Clone A human colon cancer cells. Nature of the data set: In vitro growth inhibition of Clone A cells (MTT, 72 hr). The class given is cell-based. To be noted: read-out: Clone A IC50. On the procedure: as §1, §2, §3, §4, §5, §6

≈ marks a conversion by molar mass, not a printed value. Read-outs that look alike come from different tables or passages of the source.

With `O=C1c2cccc3c2c(cc2cnccc23)C(=O)N1CCCCNCCCN1C(=O)c2cccc3c2c(cc2cnccc23)C1=O` [Example 15, 4-[3-(7-Azaphenanthrene-1,10-dicarboximido)propylamino]-1-(7-azaphenanthrene-1,10dicarboximido) butane 2.5-Hydromethanesulfonate], the IC50 (as a rule, the concentration at which inhibition is half-maximal) in data set [1] (L1210 cells, 72 hr, MTT) was 0.002 µg/mL (≈ 0.00329 µM); in data set [2] (Clone A cells, 72 hr, MTT), 0.002 µg/mL (≈ 0.00329 µM). The solubility (usually how much of the substance goes into solution per volume) in “Solubility in water” is 810 µg/mL (≈ 1330 µM).

Regarding `CC[C@H](CNCCNC[C@@H](CC)N1C(=O)c2cc([N+](=O)[O-])cc3c2c(cc2cc(C)cnc23)C1=O)N1C(=O)c2cc([N+](=O)[O-])cc3c2c(cc2cc(C)cnc23)C1=O` [Example 24], the IC50 in data set [1] (L1210 cells, 72 hr, MTT) came to 0.13 µg/mL (≈ 0.166 µM); in data set [2] (Clone A cells, 72 hr, MTT), 0.022 µg/mL (≈ 0.0281 µM). In the data set “Solubility in water”, this molecule yielded a solubility of 150 µg/mL (≈ 192 µM).

As to `CS(=O)(=O)O.CS(=O)(=O)O.CS(=O)(=O)O.O=C1c2cccc3c2c(cc2ccncc23)C(=O)N1CCCCNCCCN1C(=O)c2cccc3c2c(cc2ccncc23)C1=O` [Example 14, 4-[3-(6-Azaphenanthrene-1,10-dicarboximido)propylamino]-1-(6-azaphenanthrene-1,10-dicarboximido) butane Trihydromethanesulfonate], the IC50 in data set [1] (L1210 cells, 72 hr, MTT) is 0.008 µg/mL; in data set [2] (Clone A cells, 72 hr, MTT) it was 0.003 µg/mL. The molecule further had a solubility in the data set “Solubility in water” of 900 µg/mL.

In the case of `CS(=O)(=O)O.Cc1nc2cc3c4c(cccc4c2s1)C(=O)N(CCCCNCCCN1C(=O)c2cccc4c2c(cc2nc(C)sc24)C1=O)C3=O` [Example 82, 4-[3-(2-Methylnaphtho[2,1-d]thiazole-5,6-dicarboximido)propylamino]-1-(2-methylnaphtho[2,1-d]thiazole-5,6-dicarboximido)butane Hydromethanesulfonate], the concentration for half-maximal inhibition (IC50) in data set [1] (L1210 cells, 72 hr, MTT) was 0.082 µg/mL; in data set [2] (Clone A cells, 72 hr, MTT), 0.068 µg/mL. In the data set “Solubility in water”, this molecule registered a solubility of 4500 µg/mL.

As for `CS(=O)(=O)O.Cc1cccc2c1cc1c3c(cccc32)C(=O)N(CCCCNCCCN2C(=O)c3cccc4c3c(cc3c(C)cccc34)C2=O)C1=O` [Example 42, 4-[3-(8-Methylphenanthrene-1,10-dicarboximido)propylamino]-1-(8-methylphenanthrene-1, 10-dicarboximido)butane Hydromethanesulfonate], the 50% inhibitory concentration (IC50) in data set [1] (L1210, 72 h) stood at 0.137 µg/mL; in data set [2] (72 h), 0.271 µg/mL. Moreover, in “Solubility in water”, the solubility is 60 µg/mL.

Consider `CS(=O)(=O)O.Cc1ccc2c(C)c3c4c(cccc4c2c1)C(=O)N(CCCCNCCCN1C(=O)c2cccc4c2c(c(C)c2ccc(C)cc24)C1=O)C3=O` [Example 46, 4-[3-(6,9-Dimethylphenanthrene-1,10-dicarboximido)propylamino]-1-(6,9-dimethylphenanthrene-1, 10-dicarboximido)butane Hydromethanesulfonate], for which the IC50 amounted to 0.414 µg/mL in data set [1] (L1210, 72 h) and 0.958 µg/mL in data set [2] (72 h). In addition, the solubility in the data set “Solubility in water” was found to be 40 µg/mL.

As to `CS(=O)(=O)O.CS(=O)(=O)O.CS(=O)(=O)O.Cc1nc2cc3c4c(cccc4c2[nH]1)C(=O)N(CCCCNCCCN1C(=O)c2cccc4c2c(cc2nc(C)[nH]c24)C1=O)C3=O` [Example 81, 4-[3-(2-Methyl-1H-naphth[1,2-d]imidazole-5,6-dicarboximido)propylamino]-1-(2-methyl-1H-naphth[1,2-d]imidazole-5,6-dicarboximido)butane Trihydromethanesulfonate], the IC50 in data set [1] (L1210 cells, 72 hr, MTT) worked out at 0.201 µg/mL; in data set [2] (Clone A cells, 72 hr, MTT) it was 22.2 µg/mL. The molecule also came in with a solubility in the data set “Solubility in water” of 7600 µg/mL.

As for `CS(=O)(=O)O.Cc1cnc2c(c1)cc1c3c(cc([N+](=O)[O-])cc32)C(=O)N(CCCCNCCCN2C(=O)c3cc([N+](=O)[O-])cc4c3c(cc3cc(C)cnc34)C2=O)C1=O` [Example 12, 4-[3-(3-Nitro-7-methyl-5-azaphenanthrene-1, 10-dicarboximido)propylamino]-1-(3-nitro-7-methyl-5-azaphenanthrene-1, 10-dicarboximido)butane Hydromethanesulfonate], the IC50 in data set [1] (L1210, 72 h) was 0.027 µg/mL; in data set [2] (72 h), 0.009 µg/mL. The molecule also came in with a solubility in the data set “Solubility in water” of 50 µg/mL.

As to `O=C1c2cccc3cc([N+](=O)[O-])cc(c23)C(=O)N1CCCCNCCCN1C(=O)c2cccc3c2c(cc2cccnc23)C1=O` [Example 124], in data set [1] (L1210 cells, 72 hr, MTT), the IC50 was 0.011 µg/mL (≈ 0.0183 µM). The same molecule came in with a solubility in “Solubility in water” of 290 µg/mL (≈ 482 µM).

Regarding `C[C@H](CNCCNC[C@@H](C)N1C(=O)c2cc([N+](=O)[O-])cc3c2c(cc2cccnc23)C1=O)N1C(=O)c2cccc3cc([N+](=O)[O-])cc(c23)C1=O` [Example 123], the IC50 in data set [1] (L1210 cells, 72 hr, MTT) was 0.013 µg/mL (≈ 0.0192 µM). This molecule returned a solubility in “Solubility in water” of 5770 µg/mL (≈ 8540 µM).

In the case of `CS(=O)(=O)O.O=C1c2cccc3c2c(c(C(F)(F)F)c2ccccc23)C(=O)N1CCCCNCCCN1C(=O)c2cccc3c2c(c(C(F)(F)F)c2ccccc23)C1=O` [Example 45, 4-(3-[9-(Trifluoromethyl)phenanthrene-1,10-dicarboximido]propylamino)-1-[9-(trifluoromethyl)phenanthrene-1,10-dicarboximido]butane Hydromethanesulfonate], the IC50 in data set [1] (L1210, 72 h) was 0.3 µg/mL; in data set [2] (72 h) it was 1.05 µg/mL.

As for `CS(=O)(=O)O.N#Cc1ccc2cc3c4c(cccc4c2c1)C(=O)N(CCCCNCCCN1C(=O)c2cccc4c2c(cc2ccc(C#N)cc24)C1=O)C3=O` [Example 49, 4-[3-(6-Cyanophenanthrene-1,10-dicarboximido)propylamino]-1-(6-cyanophenanthrene-1, 10-dicarboximido)butane Hydromethanesulfonate], the IC50 in data set [1] (L1210, 72 h) amounted to 0.026 µg/mL; in data set [2] (72 h), 0.007 µg/mL.

Consider `C[C@H](CNCCNC[C@@H](C)N1C(=O)c2cccc3c2c(cc2ccc(F)cc23)C1=O)N1C(=O)c2cccc3cc([N+](=O)[O-])cc(c23)C1=O` [Example 120], for which the IC50 was determined as 0.261 µg/mL (≈ 0.403 µM) in data set [1] (L1210, 72 h) and 0.013 µg/mL (≈ 0.0201 µM) in data set [2] (72 h).

With `COc1cc2cc3c4c(cccc4c2cc1OC)C(=O)N(CCCCNCCCN1C(=O)c2cccc4c2c(cc2cc(OC)c(OC)cc24)C1=O)C3=O.CS(=O)(=O)O` [Example 55, 4-[3-(6,7-Dimethoxyphenanthrene-1,10-dicarboximido)propylamino]-1-(6,7-dimethoxyphenanthrene-1,10-dicarboximido)butane Hydromethanesulfonate], the IC50 in data set [1] (L1210, 72 h) was determined as 0.356 µg/mL; in data set [2] (72 h), 5.43 µg/mL.

Take `CS(=O)(=O)O.CS(=O)(=O)O.C[C@H](CNCCNC[C@@H](C)N1C(=O)c2cccc3c2c(cc2cnccc23)C1=O)N1C(=O)c2cccc3cc([N+](=O)[O-])cc(c23)C1=O` [Example 113, (R,R)-1-[2-(7-Azaphenanthrene-1,10-dicarboximido)propylamino]-2-[2-(3-nitronaphthalene-1,8-dicarboximido)propylamino]ethane Dihydromethanesulfonate]: the IC50 was determined as 0.008 µg/mL in data set [1] (L1210 cells, 72 hr, MTT) and 0.0003 µg/mL in data set [2] (Clone A cells, 72 hr, MTT).

Take `CS(=O)(=O)O.O=C1c2cc([N+](=O)[O-])cc3c2c(cc2ccccc23)C(=O)N1CCCCNCCCN1C(=O)c2cc([N+](=O)[O-])cc3c2c(cc2ccccc23)C1=O` [Example 50, 4-[3-(3-Nitrophenanthrene-1,10-dicarboximido)propylamino]-1-(3-nitrophenanthrene-1, 10-dicarboximido)butane Hydromethanesulfonate]: the IC50 came out at 0.126 µg/mL in data set [1] (L1210, 72 h) and 0.032 µg/mL in data set [2] (72 h).

As to `CS(=O)(=O)O.CS(=O)(=O)O.CS(=O)(=O)O.Nc1cc2c3c(cc4ccccc4c3c1)C(=O)N(CCCCNCCCN1C(=O)c3cc(N)cc4c3c(cc3ccccc34)C1=O)C2=O` [Example 53, 4-[3-(3-Aminophenanthrene-1,10-dicarboximido)propylamino]-1-(3-aminophenanthrene-1,10-dicarboximido)butane Trihydromethanesulfonate], the IC50 in data set [1] (L1210, 72 h) came to 0.453 µg/mL; in data set [2] (72 h), 0.755 µg/mL.
